Data as given in PubChem BioAssay (NCI).
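Cultured in 96-well plates, cells were exposed to test compound for 48 hours across five concentrations. Here, GI50 denotes the concentration required for 50% inhibition of growth. The concentration for full growth arrest is given as TGI.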

Key:
Assay in all cases: growth of human tumour cells (NCI), 48 h
[1] = tested on: 786-0 renal
[2] = tested on: A549 NSCLC
[3] = tested on: ACHN renal
[4] = tested on: BT-549 breast
[5] = tested on: COLO 205 colon
[6] = tested on: DU-145 prostate
[7] = tested on: EKVX NSCLC
[8] = tested on: HCC-2998 colon
[9] = tested on: HCT-116 colon
[10] = tested on: HCT-15 colon
[11] = tested on: HOP-62 NSCLC
[12] = tested on: HOP-92 NSCLC
[13] = tested on: HS 578T breast
[14] = tested on: HT29 colon
[15] = tested on: IGROV1 ovarian
[16] = tested on: KM12 colon
[17] = tested on: M14 melanoma
[18] = tested on: MDA-MB-231 breast
[19] = tested on: MDA-MB-435
[20] = tested on: NCI-H23 lung
[21] = tested on: NCI/ADR-RES ovarian
[22] = tested on: OVCAR-5 ovarian
[23] = tested on: OVCAR-8 ovarian
[24] = tested on: PC-3 prostate
[25] = tested on: SF-295 CNS
[26] = tested on: SF-539 CNS
[27] = tested on: SK-MEL-28 melanoma
[28] = tested on: SK-OV-3 ovarian
[29] = tested on: T-47D breast
[30] = tested on: TK-10 renal
[31] = tested on: U251 CNS
[32] = tested on: UACC-257 melanoma
[33] = tested on: UO-31 renal
[34] = tested on: UACC-62 melanoma
[35] = tested on: A498 renal
[36] = tested on: CAKI-1 renal
[37] = tested on: CCRF-CEM leukemia
[38] = tested on: HL-60(TB) leukemia
[39] = tested on: K-562 leukemia
[40] = tested on: LOX IMVI melanoma
[41] = tested on: MALME-3M melanoma
[42] = tested on: MCF7 breast
[43] = tested on: MOLT-4 leukemia
[44] = tested on: NCI-H226 lung
[45] = tested on: NCI-H460 lung
[46] = tested on: NCI-H522 lung
[47] = tested on: OVCAR-3 ovarian
[48] = tested on: OVCAR-4 ovarian
[49] = tested on: RPMI-8226 leukemia
[50] = tested on: RXF 393 renal
[51] = tested on: SF-268 CNS
[52] = tested on: SK-MEL-2 melanoma
[53] = tested on: SK-MEL-5 melanoma
[54] = tested on: SN12C renal
[55] = tested on: SNB-19 CNS
[56] = tested on: SNB-75 CNS
[57] = tested on: SR leukemia
[58] = tested on: SW-620 colon

Work on `Cc1sc2nc(-c3ccc([N+](=O)[O-])cc3)c(/C=N/N=C(N)N)n2c1C` yielded a TGI [1] of 0.637 µM, a TGI [2] of 2.88 µM and a TGI [3] of 2.61 µM. The TGI [4] was 2.79 µM, the TGI [5] was 0.809 µM and the TGI [6] was 2.74 µM. It also gave a TGI [7] of 2.41 µM, a TGI [8] of 0.693 µM and a TGI [9] of 0.427 µM. It also gave a TGI [10] of 2.82 µM, a TGI [11] of 2.12 µM and a TGI [12] of 2.81 µM. For the same compound, the TGI [13] was 3.49 µM, the TGI [14] was 1.63 µM and the TGI [15] was 2.71 µM. The TGI [16] was 1.03 µM, the TGI [17] was 1.99 µM and the TGI [18] was 1.17 µM. It also gave a TGI [19] of 2.25 µM, a TGI [20] of 2.73 µM and a TGI [21] of 11 µM. It also gave a TGI [22] of 2.81 µM, a TGI [23] of 1.8 µM and a TGI [24] of 2.65 µM. The TGI [25] was 2.42 µM, the TGI [26] was 3.26 µM and the TGI [27] was 1.37 µM. It also gave a TGI [28] of 3.12 µM, a TGI [29] of 3.1 µM and a TGI [30] of 2.84 µM. For the same compound, the TGI [31] was 0.358 µM, the TGI [32] was 2.77 µM and the TGI [33] was 2.98 µM.

`CCOP(=O)(C/C=C\Cn1cnc(C(N)=O)c1N)OCC` was tested, and the GI50 [34] was 25.7 µM and the TGI [34] was 75.8 µM.

With `Clc1ccc2nnnn2n1` the GI50 [1] was 3.73 µM, the TGI [1] was > 100 µM and the GI50 [35] was 15.1 µM. For the same compound, the TGI [35] was 54.9 µM, the GI50 [2] was 13.9 µM and the TGI [2] was > 100 µM. The GI50 [3] was 5.27 µM, the TGI [3] was 19.5 µM and the GI50 [4] was 2.87 µM. For the same compound, the TGI [4] was 9.92 µM, the GI50 [36] was 10.1 µM and the TGI [36] was 22.8 µM. It also gave a GI50 [37] of 3.74 µM, a TGI [37] of 29.8 µM and a GI50 [5] of 2.03 µM. It also gave a TGI [5] of 3.81 µM, a GI50 [6] of 2.31 µM and a TGI [6] of 6.41 µM. For the same compound, the GI50 [7] was 18 µM, the TGI [7] was 62.3 µM and the GI50 [8] was 16.9 µM. For the same compound, the TGI [8] was 40.6 µM, the GI50 [9] was 2.06 µM and the TGI [9] was 4.46 µM. The GI50 [10] was 4.01 µM, the TGI [10] was > 100 µM and the GI50 [38] was 1.94 µM. The TGI [38] was 5.14 µM, the GI50 [11] was 4.51 µM and the TGI [11] was 33.1 µM. The GI50 [12] was 4.15 µM, the TGI [12] was 27 µM and the GI50 [13] was 21.8 µM. The TGI [13] was > 100 µM, the GI50 [14] was 2.93 µM and the TGI [14] was 8.03 µM. For the same compound, the GI50 [15] was 4.05 µM, the TGI [15] was 50.1 µM and the GI50 [39] was 2.77 µM. The TGI [39] was 17.4 µM, the GI50 [16] was 2.08 µM and the TGI [16] was 4.87 µM. For the same compound, the GI50 [40] was 3.64 µM, the TGI [40] was > 100 µM and the GI50 [17] was 1.98 µM. The TGI [17] was 6.26 µM, the GI50 [41] was 12.1 µM and the TGI [41] was 31.4 µM. The GI50 [42] was 3.11 µM, the TGI [42] was 14.3 µM and the GI50 [18] was 2.64 µM. It also gave a TGI [18] of 7.01 µM, a GI50 [19] of 2.13 µM and a TGI [19] of 5.39 µM. It also gave a GI50 [43] of 3.26 µM, a TGI [43] of 44.5 µM and a GI50 [44] of 4.84 µM. It also gave a TGI [44] of 35.9 µM, a GI50 [20] of 5.98 µM and a TGI [20] of 35.4 µM. The GI50 [45] was 3.26 µM, the TGI [45] was 12 µM and the GI50 [46] was 3.01 µM. The TGI [46] was 11.2 µM, the GI50 [21] was 5.61 µM and the TGI [21] was > 100 µM. For the same compound, the GI50 [47] was 2.6 µM, the TGI [47] was 6.66 µM and the GI50 [48] was 5.21 µM. For the same compound, the TGI [48] was 17.7 µM, the GI50 [22] was 4.7 µM and the TGI [22] was 20.5 µM. The GI50 [23] was 5.22 µM, the TGI [23] was > 100 µM and the GI50 [49] was 3.54 µM. For the same compound, the TGI [49] was 28 µM, the GI50 [50] was 2.75 µM and the TGI [50] was 8.65 µM. For the same compound, the GI50 [51] was 3.74 µM, the TGI [51] was 37.2 µM and the GI50 [25] was 4.05 µM. For the same compound, the TGI [25] was > 100 µM, the GI50 [52] was 2.88 µM and the TGI [52] was 20.7 µM. For the same compound, the GI50 [27] was 12.3 µM, the TGI [27] was 63 µM and the GI50 [53] was 2.24 µM. It also gave a TGI [53] of 6.19 µM, a GI50 [28] of 10.5 µM and a TGI [28] of 92.9 µM. For the same compound, the GI50 [54] was 4.7 µM, the TGI [54] was > 100 µM and the GI50 [55] was 31.8 µM. The TGI [55] was > 100 µM, the GI50 [56] was 4.07 µM and the TGI [56] was > 100 µM. It also gave a GI50 [57] of 1.46 µM, a TGI [57] of 8 µM and a GI50 [58] of 3.88 µM. It also gave a TGI [58] of 22 µM, a GI50 [29] of 6.25 µM and a TGI [29] of 24 µM. The GI50 [30] was 3.5 µM, the TGI [30] was 23.6 µM and the GI50 [31] was 3.97 µM. The TGI [31] was 22.7 µM, the GI50 [32] was 16.1 µM and the TGI [32] was 56.9 µM. For the same compound, the GI50 [34] was 2.77 µM, the TGI [34] was 27.5 µM and the GI50 [33] was 3.52 µM. For the same compound, the TGI [33] was > 100 µM.
